Key:
[1] = target: FASN Keto-reductase Domain (hFASN enzyme, full length) (Homo sapiens (Human), UniProt P49327); test: Fatty Acid Synthase Keto-reductase Domain (FASN KR) Inhibition; format: biochemical; details: NADPH oxidation at 340 nm, ethyl acetoacetate substrate
Experimental: After 20 minutes incubation at room temperature the plate was measured again (T2).
The decrease in absorbance was calculated as (Absorbance before incubation T1)−(Absorbance following incubation T2).
Raw data generated by the instrument were normalized to % Controlmin values, which were calculated as: % Controlmin=100*(x−mLC)/(mHC−mLC)
where mLC and mHC were the means of the low control wells and high control wells on the plate, after manual exclusion of outliers. A plot of Controlmin versus test compound concentration was fitted to a 4-parameter logistic curve using a non-linear least squares regression method.

[2] = target: hFASN enzyme (full length) (Homo sapiens (Human), UniProt P49327); test: Fatty Acid Synthase (FASN) Inhibition Scintillation Proximity Assay; format: biochemical; details: 3H-acetyl-CoA and malonyl-CoA substrates, SPA, mean if tested more than once
Method in brief: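 Full-length human FASN (300 ng, in-house purified) in 100 mM KH2PO4 pH 7.5, 1 mM DTT converts 3H-acetyl-CoA plus malonyl-CoA to hydrophobic 3H-palmitate, captured by streptavidin imaging beads and read on LEADseeker at 610 nm after ≥24 h. Compounds tested 0.01–30 μM; data normalized to plate controls and fitted to 4-parameter logistic curves.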

A2780 ovarian cells = test: A2780 Ovarian Cell Proliferation Assay in Lipid Reduced Medium, with Palmitate; format: cell-based; details: Homo sapiens, 10% lipid-reduced serum, 25 μM palmitate, 96 h, MTT, read-out: pIC50 With Palmitate (converted)
Experimental: The biological assays described below correspond to comparative assays for ovarian cell proliferation.
2500 cells were seeded in a 96-well clear well plate in 200 μL RPM11640 with 10% Fetal Calf Serum (Hyclone), and incubated at 37° C., 5% CO2. Blanks were wells without cells. The next day the culture medium was aspirated and replaced by 160 μL culture medium with 10% Lipid-Reduced Serum (LRS, Hyclone). […] After 96 h incubation, an MTT assay was performed.

Chain of FASN Keto-reductase Domain (hFASN enzyme, full length) (P49327 whole entry, the tested form may be a part): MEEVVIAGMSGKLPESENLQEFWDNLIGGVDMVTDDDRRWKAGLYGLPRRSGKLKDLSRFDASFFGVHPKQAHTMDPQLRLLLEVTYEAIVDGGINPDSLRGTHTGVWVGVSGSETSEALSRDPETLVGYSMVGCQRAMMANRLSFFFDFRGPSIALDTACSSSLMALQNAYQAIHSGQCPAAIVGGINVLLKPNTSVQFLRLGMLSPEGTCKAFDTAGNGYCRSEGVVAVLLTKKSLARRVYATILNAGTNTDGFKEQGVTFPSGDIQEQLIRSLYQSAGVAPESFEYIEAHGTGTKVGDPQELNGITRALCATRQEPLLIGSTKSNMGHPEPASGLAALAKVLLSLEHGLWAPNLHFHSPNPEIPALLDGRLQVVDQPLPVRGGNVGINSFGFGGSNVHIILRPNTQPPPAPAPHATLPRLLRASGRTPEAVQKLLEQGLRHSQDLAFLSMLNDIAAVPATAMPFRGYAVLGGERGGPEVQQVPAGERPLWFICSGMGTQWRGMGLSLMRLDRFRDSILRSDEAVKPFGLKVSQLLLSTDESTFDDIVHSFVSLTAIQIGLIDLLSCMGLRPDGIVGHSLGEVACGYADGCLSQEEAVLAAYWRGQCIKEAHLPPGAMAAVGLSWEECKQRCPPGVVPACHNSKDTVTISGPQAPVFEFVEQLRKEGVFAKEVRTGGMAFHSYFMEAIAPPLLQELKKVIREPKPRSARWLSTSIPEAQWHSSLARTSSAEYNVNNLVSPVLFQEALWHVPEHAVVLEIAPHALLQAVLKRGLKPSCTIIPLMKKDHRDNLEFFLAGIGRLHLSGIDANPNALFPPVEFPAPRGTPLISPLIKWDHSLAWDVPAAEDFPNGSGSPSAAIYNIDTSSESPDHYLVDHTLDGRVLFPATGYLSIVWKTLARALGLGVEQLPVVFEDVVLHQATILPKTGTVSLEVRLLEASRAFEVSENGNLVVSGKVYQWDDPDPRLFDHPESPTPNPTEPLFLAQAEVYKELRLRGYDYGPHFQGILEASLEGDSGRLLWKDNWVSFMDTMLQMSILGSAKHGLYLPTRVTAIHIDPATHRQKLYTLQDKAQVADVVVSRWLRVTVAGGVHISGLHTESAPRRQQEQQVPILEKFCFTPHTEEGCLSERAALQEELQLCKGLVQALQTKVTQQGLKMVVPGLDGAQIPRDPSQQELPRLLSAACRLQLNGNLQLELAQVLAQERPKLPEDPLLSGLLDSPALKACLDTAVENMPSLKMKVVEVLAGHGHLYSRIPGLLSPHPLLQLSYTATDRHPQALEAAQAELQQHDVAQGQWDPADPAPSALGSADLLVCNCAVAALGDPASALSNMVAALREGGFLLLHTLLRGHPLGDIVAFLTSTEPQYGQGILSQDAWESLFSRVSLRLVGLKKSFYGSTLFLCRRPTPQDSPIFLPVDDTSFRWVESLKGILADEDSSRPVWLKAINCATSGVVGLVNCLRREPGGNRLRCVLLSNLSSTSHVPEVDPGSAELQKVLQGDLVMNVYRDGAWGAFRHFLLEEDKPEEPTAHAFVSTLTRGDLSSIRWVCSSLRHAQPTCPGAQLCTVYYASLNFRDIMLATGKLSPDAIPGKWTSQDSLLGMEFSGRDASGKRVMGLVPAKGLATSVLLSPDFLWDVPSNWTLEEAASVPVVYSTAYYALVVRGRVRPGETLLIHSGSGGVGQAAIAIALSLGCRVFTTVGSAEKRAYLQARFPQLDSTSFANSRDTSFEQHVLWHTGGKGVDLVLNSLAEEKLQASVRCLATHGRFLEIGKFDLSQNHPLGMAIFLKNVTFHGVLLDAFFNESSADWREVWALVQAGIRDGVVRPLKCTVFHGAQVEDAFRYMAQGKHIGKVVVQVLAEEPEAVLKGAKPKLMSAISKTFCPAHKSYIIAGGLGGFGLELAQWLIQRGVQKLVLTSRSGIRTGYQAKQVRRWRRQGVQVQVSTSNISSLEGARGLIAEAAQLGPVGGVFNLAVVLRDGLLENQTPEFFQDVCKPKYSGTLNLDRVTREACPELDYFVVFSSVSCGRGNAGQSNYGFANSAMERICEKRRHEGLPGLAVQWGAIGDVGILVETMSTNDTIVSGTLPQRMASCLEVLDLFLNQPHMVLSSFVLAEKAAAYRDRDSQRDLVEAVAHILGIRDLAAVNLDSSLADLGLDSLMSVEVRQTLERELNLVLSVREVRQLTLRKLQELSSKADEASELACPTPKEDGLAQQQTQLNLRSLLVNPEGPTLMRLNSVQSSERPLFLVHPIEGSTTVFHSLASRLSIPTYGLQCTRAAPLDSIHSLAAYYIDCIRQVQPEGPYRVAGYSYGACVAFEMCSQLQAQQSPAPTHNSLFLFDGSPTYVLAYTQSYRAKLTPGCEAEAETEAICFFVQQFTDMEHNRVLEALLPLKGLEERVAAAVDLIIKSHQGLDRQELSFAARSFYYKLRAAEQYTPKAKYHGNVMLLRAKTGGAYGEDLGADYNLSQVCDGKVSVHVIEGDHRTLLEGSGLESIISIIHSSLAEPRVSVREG
Chain of hFASN enzyme (full length) (P49327 whole entry): as the sequence (P49327 whole entry, the tested form may be a part) above

Compound	FASN Keto-reductase Domain pIC50 [1]	Human FASN pIC50 [2]	IC50 (A2780 ovarian cells) [µM]
CC1(C)N=C(c2ccc(-c3c[nH]c4ccccc34)cc2)N(C[C@@H]2CCN(C(=O)C3CC3)C2)C1=O [Compound 65, (R)-2-(4-(1H-indol-3-yl)phenyl)-1-((1-(cyclopropanecarbonyl)pyrrolidin-3-yl)methyl)-4,4-dimethyl-1H-imidazol-5(4H)-one]	6.14	6.64	
CC1(C)N=C(c2ccc(-c3ccc4cc(F)ccc4c3)cc2F)N(C[C@@H]2CCN(C(=O)C3CC3)C2)C1=O [Compound 66, (R)-1-((1-(cyclopropanecarbonyl)pyrrolidin-3-yl)methyl)-2-(2-fluoro-4-(6-fluoronaphthalen-2-yl)phenyl)-4,4-dimethyl-1H-imidazol-5(4H)-one]	7.28	7.48	> 10
CC1(C)N=C(c2ccc(-c3ccc4cccc(F)c4c3)cc2F)N(C[C@@H]2CCN(C(=O)C3CC3)C2)C1=O [Compound 67, (R)-1-((1-(cyclopropanecarbonyl)pyrrolidin-3-yl)methyl)-2-(2-fluoro-4-(8-fluoronaphthalen-2-yl)phenyl)-4,4-dimethyl-1H-imidazol-5(4H)-one]			> 10
CC1(C)N=C(c2ccc(-c3ccc4cnccc4c3)cc2F)N(C[C@@H]2CCN(C(=O)C3CC3)C2)C1=O [Compound 68, (R)-1-((1-(cyclopropanecarbonyl)pyrrolidin-3-yl)methyl)-2-(2-fluoro-4-(isoquinolin-6-yl)phenyl)-4,4-dimethyl-1H-imidazol-5(4H)-one]	7.32	7.26	> 10
CC1(C(=O)N2CC(CN3C(=O)C(C)(C)N=C3c3ccc(-c4ccc5cc(F)ccc5c4)cc3F)C2)CC1 [Compound 72, 2-(2-fluoro-4-(6-fluoronaphthalen-2-yl)phenyl)-4,4-dimethyl-1-((1-(1-methylcyclopropanecarbonyl)azetidin-3-yl)methyl)-1H-imidazol-5(4H)-one]	7.23	7.45	
Cn1ncc2cc(-c3ccc(C4=NC(C)(C)C(=O)N4C[C@@H]4CCN(C(=O)C5(C)CC5)C4)c(F)c3)ccc21 [Compound 73, (R)-2-(2-fluoro-4-(1-methyl-1H-indazol-5-yl)phenyl)-4,4-dimethyl-1-((1-(1-methylcyclopropanecarbonyl)pyrrolidin-3-yl)methyl)-1H-imidazol-5(4H)-one]	7.17	7.18	
Cn1cc(-c2ccc(-c3ccc(C4=NC(C)(C)C(=O)N4C[C@@H]4CCN(C(=O)C5(C)CC5)C4)c(F)c3)cc2)cn1 [Compound 74, (R)-2-(3-fluoro-4′-(1-methyl-1H-pyrazol-4-yl)-[1,1′-biphenyl]-4-yl)-4,4-dimethyl-1-((1-(1-methylcyclopropanecarbonyl)pyrrolidin-3-yl)methyl)-1H-imidazol-5(4H)-one]	7.38	7.26	
Cc1cc(-c2ccc3c(cnn3C)c2)ccc1C1=NC(C)(C)C(=O)N1CC1CN(C(=O)C2(C)CC2)C1 [Compound 77, 4,4-dimethyl-2-(2-methyl-4-(1-methyl-1H-indazol-5-yl)phenyl)-1-((1-(1-methylcyclopropanecarbonyl)azetidin-3-yl)methyl)-1H-imidazol-5(4H)-one]	6.44	6.82	
Cn1ncc2cc(-c3ccc(C4=NC(C)(C)C(=O)N4CC4CN(C(=O)C5(O)CC5)C4)c(F)c3)ccc21 [Compound 78, 2-(2-fluoro-4-(1-methyl-1H-indazol-5-yl)phenyl)-1-((1-(1-hydroxycyclopropanecarbonyl)azetidin-3-yl)methyl)-4,4-dimethyl-1H-imidazol-5(4H)-one]	6.19	6.61	
CC1(C)N=C(c2ccc(-c3ccc4cc(F)ccc4c3)cc2F)N(CC2CN(C(=O)C3(O)CC3)C2)C1=O [Compound 79, 2-(2-fluoro-4-(6-fluoronaphthalen-2-yl)phenyl)-1-((1-(1-hydroxycyclopropanecarbonyl)azetidin-3-yl)methyl)-4,4-dimethyl-1H-imidazol-5(4H)-one]	6.92	7.52	
Cc1cc(-c2ccc3c(cnn3C)c2)ccc1C1=NC(C)(C)C(=O)N1C[C@@H]1CCN(C(=O)C2(C)CC2)C1 [Compound 80, (R)-4,4-dimethyl-2-(2-methyl-4-(1-methyl-1H-indazol-5-yl)phenyl)-1-((1-(1-methylcyclopropanecarbonyl)pyrrolidin-3-yl)methyl)-1H-imidazol-5(4H)-one]	6.96	7.20	
Cn1cc(-c2ccc(-c3ccc(C4=NC(C)(C)C(=O)N4CC4CN(C(=O)C5(O)CC5)C4)c(F)c3)cc2)cn1 [Compound 81, 2-(3-fluoro-4′-(1-methyl-1H-pyrazol-4-yl)-[1,1′-biphenyl]-4-yl)-1-((1-(1-hydroxycyclopropanecarbonyl)azetidin-3-yl)methyl)-4,4-dimethyl-1H-imidazol-5(4H)-one]	6.10	6.28	
Cc1cc(-c2ccc3cc(F)ccc3c2)ccc1C1=NC(C)(C)C(=O)N1CC1CN(C(=O)C2(C)CC2)C1 [Compound 82, 2-(4-(6-fluoronaphthalen-2-yl)-2-methylphenyl)-4,4-dimethyl-1-((1-(1-methylcyclopropanecarbonyl)azetidin-3-yl)methyl)-1H-imidazol-5(4H)-one]	7.30	7.47	
Cc1cc(-c2ccc3c(c2)ncn3C)ccc1C1=NC(C)(C)C(=O)N1CC1CN(C(=O)C2(C)CC2)C1 [Compound 83, 4,4-dimethyl-2-(2-methyl-4-(1-methyl-1H-benzo[d]imidazol-5-yl)phenyl)-1-((1-(1-methylcyclopropanecarbonyl)azetidin-3-yl)methyl)-1H-imidazol-5(4H)-one]	6.76	6.99	
Cc1cc(-c2ccc(-c3cnn(C)c3)cc2)ccc1C1=NC(C)(C)C(=O)N1C[C@@H]1CCN(C(=O)C2(C)CC2)C1 [Compound 84, (R)-4,4-dimethyl-2-(3-methyl-4′-(1-methyl-1H-pyrazol-4-yl)-[1,1′-biphenyl]-4-yl)-1-((1-(1-methylcyclopropanecarbonyl)pyrrolidin-3-yl)methyl)-1H-imidazol-5(4H)-one]	7.27	7.27	
Cc1cc(-c2ccc3c(c2)ncn3C)ccc1C1=NC(C)(C)C(=O)N1C[C@@H]1CCN(C(=O)C2(C)CC2)C1 [Compound 85, (R)-4,4-dimethyl-2-(2-methyl-4-(1-methyl-1H-benzo[d]imidazol-5-yl)phenyl)-1-((1-(1-methylcyclopropanecarbonyl)pyrrolidin-3-yl)methyl)-1H-imidazol-5(4H)-one]	6.80	7.10	
Cc1cc(-c2ccc3cc(F)ccc3c2)ccc1C1=NC(C)(C)C(=O)N1C[C@@H]1CCN(C(=O)C2(C)CC2)C1 [Compound 86, (R)-2-(4-(6-fluoronaphthalen-2-yl)-2-methylphenyl)-4,4-dimethyl-1-((1-(1-methylcyclopropanecarbonyl)pyrrolidin-3-yl)methyl)-1H-imidazol-5(4H)-one]	7.60	7.37	
Cc1cc(-c2ccc(-c3cnn(C)c3)cc2)ccc1C1=NC(C)(C)C(=O)N1CC1CN(C(=O)C2(C)CC2)C1 [Compound 87, 4,4-dimethyl-2-(3-methyl-4′-(1-methyl-1H-pyrazol-4-yl)-[1,1′-biphenyl]-4-yl)-1-((1-(1-methylcyclopropanecarbonyl)azetidin-3-yl)methyl)-1H-imidazol-5(4H)-one]	7.06	7.12	

From US9718813B2, “Imidazolin-5-one derivative useful as FASN inhibitors for the treatment of cancer” (Janssen Pharmaceutica, NV, priority 2013, dated 2017)
